Experimental data taken from patent US20250197837A1, “SERINE PROTEASE FOR SELECTIVELY DEGRADING MUCINS AND USE THEREOF” (priority 2022, published 2025).

Assays:
gel-like mucins [1] = assay: Example 2: mass loss of gel-like mucins, EatA versus bromelain; type: biochemical, human; conditions: 0.10 g mucins, 500 uL PBS, 37° C., 6 h
Excerpt: (§1) Since mucins of different origins and mucins associated with the mucus-related disease have different expression patterns and post-translational modifications, different mucins of clinical pathological origin and mixtures thereof are used in the present application. Preferably, mucins of clinical peritoneal pseudomyxoma origin are used. In the present application, firstly, gel-like mucins from the abdominal cavity of patients with clinical peritoneal pseudomyxoma are collected, after protein precipitation with 30% to 100% ammonium sulfate, cells and tissue fragments, adipose tissue that possibly doped in the collection process of mucins are selected and removed, and then dialyzed and filtered through a 100 KDa dialysis bag. Through the use of sulfate detection test paper, the sulfate concentration in the dialysate and the inner side of the dialysis bag is confirmed. When the sulfate concentration is less than 200 mg/L, the dialysis is terminated and gel-like mucins can be seen. This sample is collected and used as the substrate for in vitro tests to examine the degradation ability of serine protease EatA on mucins. Some examples used mucins removed from the abdominal cavity of clinical patients without purification. […]

[2] = test system: human patient-derived gel-like mucins; assay: Example 5: in vivo degradation of gel-like mucins embedded in mouse abdominal cavity; set-up: species or system C57 male mice; conditions: 80 ug injected 24 h after embedding 0.30 g mucins, sacrificed after 48 h
Method: The experiment included twenty C57 male mice aged 6-8 weeks. Five groups were set up in the experiment, including an experimental group (mucus+EatA, 5 mice), a control group (mucus+PBS, 5 mice), a bromelain group (mucus+bromelain, 5 mice), a negative sham operation group (minimal invasive open operation performed without adding mucins and enzyme, 3 mice), and a reference group (minimal invasive open operation performed with adding EatA protease, 2 mice). […] After 48 h, the mice were sacrificed, laparotomy was performed (results of abdominal examination after laparotomy were shown in FIG. 9) and the whole amount of gel-like mucins in the mice were removed, weighed using the method described in Example 2, counted and compared with the final amount of gel-like mucins remaining in three groups (experimental group (mucus+EatA), control group without enzyme (mucus+PBS) and bromelain group (mucus+bromelain)) to which gel-like mucins was added as a substrate, and results were shown in FIG. 8.

[3] = test system: miscellaneous protein derived from the patient's abdominal cavity; assay: Example 4: specificity, SDS-PAGE of miscellaneous proteins in homogenized patient mucins; type: biochemical, human; conditions: 2-10 ug protease, 100 μL homogenized mucins, 200 uL, 6 h
Method: Untreated mucins derived from clinical patients were briefly cleared to remove cellular tissue. 0.20 g of the above-mentioned mucins was accurately weighed and placed in 1 mL of PBS solution, 3-4 magnetic beads with a diameter of 1 mm were added, and then a resulting mixture was frozen and shaken at −30° C. for homogenization, so as to destroy the gel-like morphology of mucins, and release the miscellaneous protein from patients with mixed gel-like mucins. 100 μL of the homogenized mucins solution was added with 2-10 ug of protease (bromelain or serine protease EatA), respectively, and the reaction was performed in a 200 uL reaction system. After 6 h of reaction, samples were respectively taken for SDS-PAGE detection, and the total protein after fragmentation, which was the patient-derived miscellaneous protein in the abdominal cavity/abdominal mucins of the patient, was analyzed.

[4] = test system: mucins after mucus formation; conditions: background statement; cited from earlier work
[5] = target: gel-like mucins from the abdominal cavity of patients with clinical peritoneal pseudomyxoma
[6] = target: mucus from mucinous ovarian cancer (clinical source)
[7] = target: mucus from mucinous appendiceal adenocarcinoma (clinical source)
[8] = test system: mucinous ovarian cancer (MOC) mucus; assay: Example 6: viscosity of mucinous ovarian cancer mucus after incubation (rheometer); type: biochemical, human; conditions: 50 μg enzyme, 0.50 mL mucus, 750 uL, 37° C., 600 rpm, 20 h; control about 2000 mPa s
Method: (§2) This example carried out a degradation experiment on mucus from mucinous ovarian cancer and mucinous appendiceal adenocarcinoma using the serine protease EatA. 0.50 mL of the above-mentioned two new types of mucinous carcinoma mucus from clinical sources were weighed directly into test tubes, 50 μg of EatA serine protease dissolved in 0.25 mL of PBS buffer was added and then incubated in a total 750 uL reaction system at 37° C., 600 rpm for 20 h. For each type of mucinous carcinoma mucus sample, a control group was set up with only the addition of an equal volume of PBS, for a total of four experiments, each set up with three replicates. The viscosity of the incubated experimental samples was measured under an Anton Paar rheometer, probe model pp25, sample spacing 0.45 mm. After each sample was subjected to pre-shearing at a shearing frequency of 5 rad/s for 20 s, a total of 36 sample point data was obtained for each group of experiments by reading a total of 12 data at a shearing frequency of 10 rad/s every 5 s period for 60 s.

[9] = test system: gel-like mucins from the abdominal cavity of patients with clinical peritoneal pseudomyxoma; assay: Example 1: degradation of gel-like mucins by EatA, visual/pipette observation; type: biochemical, human; conditions: about 80 μg enzyme, 0.30 g mucins, 500 ul, 37° C., 3 h
Excerpt: as §1

[10] = test system: gelatin, lactoferrin and CD43, BSA and BSM; conditions: previous studies; cited from earlier work
[11] = Example 5: tolerability in mice after intraperitoneal injection; type: in vivo, C57 male mice; conditions: mice injected with enzyme
[12] = test system: mucus (sputum), mucous colon cancer and the like of patients with chronic obstructive pulmonary pneumonia; assay: Applicant's related studies: degradation of COPD sputum and mucous colon cancer mucus; type: biochemical, human; conditions: relevant study results of the applicant
gel-like mucins [13] = assay: Example 3: temperature, pH and time dependence of mucin degradation; type: biochemical, human
Excerpt: Since mucins of different origins and mucins associated with the mucus-related disease have different expression patterns and post-translational modifications, different mucins of clinical pathological origin and mixtures thereof are used in the present application. Preferably, mucins of clinical peritoneal pseudomyxoma origin are used. In the present application, firstly, gel-like mucins from the abdominal cavity of patients with clinical peritoneal pseudomyxoma are collected, after protein precipitation with 30% to 100% ammonium sulfate, cells and tissue fragments, adipose tissue that possibly doped in the collection process of mucins are selected and removed, and then dialyzed and filtered through a 100 KDa dialysis bag. Through the use of sulfate detection test paper, the sulfate concentration in the dialysate and the inner side of the dialysis bag is confirmed. When the sulfate concentration is less than 200 mg/L, the dialysis is terminated and gel-like mucins can be seen. This sample is collected and used as the substrate for in vitro tests to examine the degradation ability of serine protease EatA on mucins. Some examples used mucins removed from the abdominal cavity of clinical patients without purification.
During the experiment, 0.10 g of gel-like mucins was accurately weighed for each single reaction, 20 μg of aminoprotease EatA was added, the reaction was performed in 500 uL of solution system, and the weighing method for the remaining gel-like mucins was the same as that in Example 2. The control group was performed under the same conditions except that the serine protease EatA was not added, and three reactions were set in each group as statistical replicates. Due to the hydrating nature of gel-like mucins, the gel-like mucins absorbed water and swelled when in solution, resulting in a certain weight increase in the control group when finally weighed.
Among them, the experiment on temperature gradient was conducted in normal saline with pH=7.1, and results were shown in FIG. 4; in the pH experiment, the reaction system used was a solution system with different pH values based on 0.9% normal saline, and the reaction temperature was 37° C., and results are shown in FIG. 5; the reaction time for both the above-mentioned experiments was 6 h.
In the experiment regarding the degradation time, based on the temperature curve and pH curve, the experiment was carried out in PBS buffer with pH=7.2-7.4 at 37° C.

[14] = test system: mucinous appendiceal adenocarcinoma (MAA) mucus; assay: Example 6: viscosity and appearance of mucinous appendiceal adenocarcinoma mucus after incubation; type: biochemical, human; conditions: 50 μg enzyme, 20 h
Method: as §2

bromelain [reference compound]
mass loss of gel-like mucins (in words) (gel-like mucins [1]; increasing enzyme concentration): negative | amount of gel-like mucins remaining [2]: more than 0.30 g | degradation of patient-derived miscellaneous proteins (SDS-PAGE) [3]: the miscellaneous protein showed degradation

elastase
mucin degradation after mucus formation [4]: inefficient

pancreatin
mucin degradation after mucus formation [4]: inefficient

serine protease EatA (serine protease EatA-EatAp with only the passenger domain) (enzyme)
mass loss of gel-like mucins [5]: 90.3% | viscosity of mucus (rheometer) [6]: 670 mPa s | viscosity of mucus (rheometer) [7]: 7 mPa s

serine protease EatA: autotransporter serine protease from enterotoxigenic Escherichia coli H10407; passenger domain SEQ ID NO 2, full length SEQ ID NO 1
mass loss of gel-like mucins (gel-like mucins [1]; 40 μg enzyme, based on initial mass 0.1 g): 90.33% | degradation efficiency of gel-like mucins in vivo ([2]; based on initial 0.30 g): 78% | viscosity of mucus after incubation [8]: about 670 mPa s | degradation of gel-like mucins (observation) [9]: obvious degradation of gel-like mucins | degradation of common human glycoproteins and non-human proteins [10]: did not degrade | survival from the beginning of the experiment [11]: more than 100 days | adverse reactions, behavior and body weight ([11]; compared with non-injected group): without adverse reactions | degradation effect on mucus [12]: certain degradation effect | degradation of patient-derived miscellaneous proteins (SDS-PAGE) [3]: did not degrade these proteins | pH of maximum degradation efficiency (gel-like mucins [13]; 20 μg enzyme, 0.10 g mucins, 0.9% normal saline based, 37° C., 6 h): ~8 | mass loss of gel-like mucins (gel-like mucins [13]; 20 μg enzyme, 0.10 g mucins, PBS pH=7.2-7.4, 37° C., 10.5 h): 80% | temperature of maximum enzyme activity (gel-like mucins [13]; 20 μg enzyme, 0.10 g mucins, normal saline pH=7.1, 6 h): 34-37 °C | optimal working environment: pH (gel-like mucins [13]; degradation of gel-like mucins): 7-8 | optimal working environment: reaction temperature (gel-like mucins [13]; degradation of gel-like mucins): 34-37 °C | viscosity of mucus after incubation ([14]; 0.50 mL mucus, 750 uL, 37° C., 600 rpm, control about 1200 mPa s): about 7 mPa s | appearance of mucus sample solution after incubation ([14]; after standing): becomes uniform
